Patent US20230203081A1, “LINCOSAMIDE ANTIBIOTICS AND USES THEREOF” (President and Fellows of Harvard College, priority 2020, published 2023)
Like-named read-outs stand apart in the source and are kept apart here.

Assays:
S. pyogenes ATCC 19615 [1] = experiment: Murine neutropenic thigh infection model; settings: neutropenic mouse thigh, S. pyogenes ATCC 19615, 24 h after a single intraperitoneal dose of 60 mg/kg
Experimental: Animal studies: Animal experiments were performed at the Biology Research Infrastructure Laboratory of Harvard University following IACUC-approved protocols. Animals were maintained in accordance with National Research Council guidelines. Pathogen-free, 5-6-week-old, female CD-1 mice weighing 22-26 grams were obtained from Charles River Laboratories, Inc. (Kingston, N.Y.). Animals were acclimated for a minimum of three days prior to start of the studies. Mice were caged as a group of four per cage, were housed at 21-23° C. with humidity ranging from 30-70%, were exposed to 12-hour light and dark cycles, and were supplied with food and water ad libitum.
Mouse thigh infection studies: Mice were rendered neutropenic by administering cyclophosphamide intraperitoneally, 150 mg/kg four days prior, and 100 mg/kg one day prior to infection. Bacterial strains were cultured overnight on blood agar plates at 35° C. in 5% CO2. […] Homogenates were serially diluted and plated on blood agar plates (each sample was plated in duplicate), and bacterial counts (log10 CFU/thigh) were determined after incubating the plates overnight at 35° C. in 5% CO2. Each experiment was repeated twice, and mean values were calculated (n=4 mice per time point).

[2] = Mouse pharmacokinetics i.v. and p.o.; set-up: species or system mice; settings: in vivo, 60 mg/kg
A. baumanii ATCC 19606 = experiment: Murine neutropenic thigh infection model; format: in vivo, mice; settings: neutropenic mouse thigh, A. baumanii ATCC 19606 (FIG. 4C)
[3] = test system: susceptible S. aureus and E. faecium strains; experiment: Post-antibiotic effect (PAE) and post-antibiotic sub-MIC effect (PA-SME); format: cell-based; settings: following brief exposure; result in words
Experimental: Post-antibiotic and post-antibiotic sub-MIC effect: Measurements of PAE and PA-SME durations were performed according to the methods described by Odenholt-Tornqvist and co-workers. […] A flask containing the unexposed bacterial strain was left as untreated control. Post-exposure, 100 μL of bacterial culture was diluted in 900 μL of sterile CaMHB; 100 μL of this diluted sample was immediately diluted further in 19.9 mL of sterile CaMHB (1:2,000 final dilution). […] Flasks were incubated at 37° C. in a shaker incubator (110 rpm). Samples (100 μL from each flask per time point) were collected at 0, 1, 3, 6, and 24 h from each flask and were serially diluted. From each dilution, 100 μL and 10 μL from each dilution were plated in duplicate on TSA plates. Plates were incubated overnight at 35° C. to determine the bacterial counts (limit of detection=20 CFU/plate or 2×10^2 CFU/mL). These counts were plotted against time with linear interpolation between time points to obtain the growth-kinetic curves. PAE and PA-SME were determined from these curves using the formulae: […]
where T is the time required for bacteria previously exposed to antibiotic to multiply 1 log10 above counts immediately following dilution, and C is the corresponding time required for untreated culture to do the same; and […]

human erythrocytes = experiment: Hemolysis of human erythrocytes relative to Triton X-100; format: cell-based; settings: result in words
S. pyogenes ATCC 19615 [4] = format: in vivo
Experimental: The optical density of the bacterial suspension was adjusted to 0.1 at 600 nm using sterile BHIB and was then further diluted 1:1 in 10% hog gastric mucin (HGM, type III) to prepare the infecting inoculum in 5% HGM. Mice were infected by intraperitoneal injection of 250 μL, infecting inoculum, representing 1-2×10^6 CFU per animal. […] Animals were monitored for survival for seven days following infection.

[5] = test system: Enterococcus faecium and Enterococcus faecalis strains resistant to vancomycin, linezolid, azithromycin, ciprofloxacin, levofloxacin, gentamicin, and …; format: cell-based; settings: panel of E. faecium and E. faecalis strains resistant to vancomycin, doxycycline
Experimental: Minimum inhibitory concentrations (MICs) were determined by broth microdilution method or agar dilution method following the Clinical and Laboratory Standards Institute guidelines. Standard bacterial strains were obtained from American Type Culture Collection (ATCC). Other bacterial strains were obtained from hospitals and commercial sources, so noted in Table 11. Before the start of the MIC experiment, standard and test compound stock solutions were prepared in dimethyl sulfoxide (DMSO, Aldrich D2650) at a stock concentration of 5,120 μg/mL. The compound concentration range typically employed for each experiment was 128-0.06 μg/mL (2.5% final DMSO concentration). Clindamycin was used as a comparator in all experiments and each experiment was performed in triplicate. Specialized procedures were employed for streptococcal and anaerobic strains. All other bacterial strains were sub-cultured on blood agar plates (tryptic soy agar with 5% sheep blood, Hardy Diagnostics) and incubated overnight at 35° C. Organisms were suspended in cation-adjusted Mueller-Hinton broth (CaMHB, BD 212322) and optical density was adjusted to 0.5 McFarland standard. Suspensions were further diluted to obtain a final inoculum of 5×10^5 CFU/mL for broth microdilution experiments.

[6] = Microsomal intrinsic clearance (Clint,mic), species h; format: in vitro ADME, human; set-up: unit not given here
[7] = mouse, microsomes

In the case of `CSC1O[C@H]([C@H](NC(=O)[C@H]2NC[C@@H]3C[C@H](CC(C)C)CCO[C@H]32)[C@H](C)Cl)C(O)[C@@H](O)[C@H]1O` (some centres unmarked) [FSA-513018b], the “reduction in bacterial burden vs clindamycin- and vehicle-treated controls” value (S. pyogenes ATCC 19615 [1]) is reported as “statistically significant reductions”, the AUC ([2]; iv) is reported as 6800 ± 1300 ng·h/mL and the Cmax ([2]; iv) is reported as 7900 ± 3000 ng/mL. The MRT ([2]; iv) was 1.2 h, the clearance ([2]; iv) was 148 mL/min/kg and the Vd ([2]; iv, read-out: Vss) was 12.5 ± 0.4 L/kg. For the same compound, the AUC ([2]; po) was 1600 ± 400 ng·h/mL, the Cmax ([2]; po) was 1600 ± 700 ng/mL and the bioavailability ([2]; po) was 24%. The “efficacy in thigh infection model” value (A. baumanii ATCC 19606) was “effective”, the “post-antibiotic effect on bacterial growth” value [3] was “prolonged effects on bacterial growth” and the hemolysis (human erythrocytes) was “non-hemolytic”. For the same compound, the Mice surviving (S. pyogenes ATCC 19615 [4]; 1 mg/kg i.v., Day 1, n=8, clindamycin given as clindamycin phosphate) was 8, the Mice surviving (S. pyogenes ATCC 19615 [4]; 1 mg/kg i.v., Day 2, n=8) was 7 and the Mice surviving (S. pyogenes ATCC 19615 [4]; 1 mg/kg i.v., Day 3, n=8) was 7. For the same compound, the Mice surviving (S. pyogenes ATCC 19615 [4]; 1 mg/kg i.v., Day 4, n=8) was 7, the Mice surviving (S. pyogenes ATCC 19615 [4]; 1 mg/kg i.v., Day 5, n=8) was 7 and the Mice surviving (S. pyogenes ATCC 19615 [4]; 1 mg/kg i.v., Day 6, n=8) was 7. For the same compound, the Mice surviving (S. pyogenes ATCC 19615 [4]; 1 mg/kg i.v., Day 7, n=8) was 7, the Mice surviving (S. pyogenes ATCC 19615 [4]; 3 mg/kg i.v., Day 1, n=8) was 8 and the Mice surviving (S. pyogenes ATCC 19615 [4]; 3 mg/kg i.v., Day 2, n=8) was 8. The Mice surviving (S. pyogenes ATCC 19615 [4]; 3 mg/kg i.v., Day 3, n=8) was 8, the Mice surviving (S. pyogenes ATCC 19615 [4]; 3 mg/kg i.v., Day 4, n=8) was 8 and the Mice surviving (S. pyogenes ATCC 19615 [4]; 3 mg/kg i.v., Day 5, n=8) was 8. It also gave a Mice surviving (S. pyogenes ATCC 19615 [4]; 3 mg/kg i.v., Day 6, n=8) of 8, a Mice surviving (S. pyogenes ATCC 19615 [4]; 3 mg/kg i.v., Day 7, n=8) of 8 and a Mice surviving (S. pyogenes ATCC 19615 [4]; 10 mg/kg i.v., Day 1, n=8) of 8. For the same compound, the Mice surviving (S. pyogenes ATCC 19615 [4]; 10 mg/kg i.v., Day 2, n=8) was 8, the Mice surviving (S. pyogenes ATCC 19615 [4]; 10 mg/kg i.v., Day 3, n=8) was 8 and the Mice surviving (S. pyogenes ATCC 19615 [4]; 10 mg/kg i.v., Day 4, n=8) was 8. It also gave a Mice surviving (S. pyogenes ATCC 19615 [4]; 10 mg/kg i.v., Day 5, n=8) of 8, a Mice surviving (S. pyogenes ATCC 19615 [4]; 10 mg/kg i.v., Day 6, n=8) of 8 and a Mice surviving (S. pyogenes ATCC 19615 [4]; 10 mg/kg i.v., Day 7, n=8) of 8. For the same compound, the “rescue of infected animals” value (S. pyogenes ATCC 19615 [4]; S. pyogenes systemic infection, i.v. twice daily for two days) was “complete rescue”, the tolerability (S. pyogenes ATCC 19615 [4]; infected mice, 1, 3 or 10 mg/kg i.v. twice daily for two days, all dose levels) was “well-tolerated” and the MICs [5] was ≤ 2 µg/mL. For the same compound, the “Clint,mic” value [6] was 34 and the “Clint,mic” value [7] was 21.
